Laboratory results: patent publication US12304904B2, “Bicyclic [4,6,0] hydroxamic acids as HDAC inhibitors” (Valo Health, Inc., priority 2015, dated 2025)

Biological target: T1, HDAC6 (Homo sapiens, UniProt Q9UBN7)
T1 construct: Full length human recombinant HDAC6 protein were expressed in baculoviral system; made in house
T1 sequence (Q9UBN7 1-1215): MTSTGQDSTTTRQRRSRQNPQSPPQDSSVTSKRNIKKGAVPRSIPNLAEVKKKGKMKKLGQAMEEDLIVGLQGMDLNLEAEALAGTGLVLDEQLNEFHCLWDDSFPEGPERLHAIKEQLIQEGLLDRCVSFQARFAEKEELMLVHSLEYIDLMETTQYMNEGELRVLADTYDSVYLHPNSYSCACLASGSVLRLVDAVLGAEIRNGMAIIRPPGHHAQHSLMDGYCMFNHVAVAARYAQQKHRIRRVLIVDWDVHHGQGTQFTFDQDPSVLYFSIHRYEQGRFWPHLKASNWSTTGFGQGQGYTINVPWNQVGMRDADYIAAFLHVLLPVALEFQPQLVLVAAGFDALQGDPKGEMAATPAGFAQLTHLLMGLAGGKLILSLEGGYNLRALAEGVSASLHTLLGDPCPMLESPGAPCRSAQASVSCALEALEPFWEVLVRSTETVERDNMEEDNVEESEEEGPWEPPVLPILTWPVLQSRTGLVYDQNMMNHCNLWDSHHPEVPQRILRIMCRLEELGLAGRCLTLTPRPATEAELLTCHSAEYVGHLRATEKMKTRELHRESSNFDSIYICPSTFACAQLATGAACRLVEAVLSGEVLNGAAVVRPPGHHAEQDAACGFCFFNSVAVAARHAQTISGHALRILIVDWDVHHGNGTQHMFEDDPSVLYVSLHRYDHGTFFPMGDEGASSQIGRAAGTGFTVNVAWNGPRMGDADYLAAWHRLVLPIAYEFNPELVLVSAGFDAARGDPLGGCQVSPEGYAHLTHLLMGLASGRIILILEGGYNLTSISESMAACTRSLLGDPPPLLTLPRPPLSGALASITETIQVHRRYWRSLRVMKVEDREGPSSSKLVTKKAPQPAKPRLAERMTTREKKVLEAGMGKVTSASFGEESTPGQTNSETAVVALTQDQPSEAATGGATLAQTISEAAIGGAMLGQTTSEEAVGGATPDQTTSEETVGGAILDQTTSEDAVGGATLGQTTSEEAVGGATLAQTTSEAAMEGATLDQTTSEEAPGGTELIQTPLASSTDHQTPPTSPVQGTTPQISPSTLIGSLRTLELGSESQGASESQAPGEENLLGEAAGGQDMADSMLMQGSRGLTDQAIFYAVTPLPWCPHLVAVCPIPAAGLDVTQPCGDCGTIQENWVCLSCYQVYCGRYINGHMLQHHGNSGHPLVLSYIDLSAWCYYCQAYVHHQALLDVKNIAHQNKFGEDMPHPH
Assay: In vitro histone deacetylase assay: enzymatic HDAC6 electrophoretic mobility shift assay
Type: biochemical
Conditions: full length human recombinant HDAC6, 1 nM enzyme, 2 μM peptide substrate RHKK(Ac)-NH2, 25° C.; read-out: Inhibitory Concentration (IC50) against HDAC6, Activity Range
Experimental: The enzymatic HDAC6 assay was performed using electrophoretic mobility shift assay. Full length human recombinant HDAC6 protein were expressed in baculoviral system and purified by affinity chromatography. The enzymatic reactions were assembled in 384 well plates in a total volume of 25 μL in a reaction buffer composing: 100 mM HEPES, pH7.5, 25 mM KCl, 0.1% bovine serum albumin, 0.01% Triton X-100, 1% DMSO (from compounds) 2 μM of the fluorescently labeled peptide substrate and enzyme. The enzyme was added at a final concentration of 1 nM. The peptide substrate RHKK(Ac)—NH2 was used. The compounds were tested at 12 concentrations spaced by 3× dilution intervals. Negative control samples (0%-inhibition in the absence of inhibitor) and positive control samples (100%-inhibition) were assembled in replicates of four in each assay plate. The reactions were incubated at 25° C. and quenched by the addition of 45 μL of termination buffer (100 mM HEPES, pH 7.5, 0.01% Triton X-100, 0.05% SDS).
The terminated assay plates were analyzed on LabChip® 3000 microfluidic electrophoresis instrument (Perkin Elmer/Caliper Life Sciences). The fluorescence intensity of the electrophoretically separated de-acetylated product and substrate peptide were measured. Activity in each sample was determined as the product to sum ratio (PSR): P/(S+P), where P is the peak height of the product peptide and S is the peak height of the substrate peptide. Percent inhibition (Pinh) was determined using the following equation:
Pinh=(PSR0%−PSRinh)/(PSR0%−PSR100%)*100, where PSRinh is the product sum ratio in the presence of inhibitor, PSR0% is the average product sum ration in the absence of inhibitor and PSR100% is the average product sum ratio in 100%-inhibition control samples. The IC50 values of inhibitors are determined by fitting the %-inhibition curves with 4 parameter dose-response model using XLfit 4 software.

Row | Compound | IC50
1 | CC1(C(=O)N2CCCOc3cc(C(=O)NO)ccc3C2)CCOCC1 [N-hydroxy-5-(4-methyltetrahydro-2H-pyran-4-carbonyl)-3,4,5,6-tetrahydro-2H-benzo[b][1,5]oxazocine-9-carboxamide] | ≤ 100 nM
2 | O=C(NO)c1ccc2c(c1)OCCCNC2 [N-hydroxy-3,4,5,6-tetrahydro-2H-benzo[b][1,5]oxazocine-9-carboxamide] | > 500 nM
3 | O=C(NO)c1ccc2c(c1)OCCCN(C(=O)C1CCOCC1)C2 [N-hydroxy-5-(tetrahydro-2H-pyran-4-carbonyl)-3,4,5,6-tetrahydro-2H-benzo[b][1,5]oxazocine-9-carboxamide] | 100 to 500 nM
